Laboratory results from patent publication US10231954B2, “Neurodegenerative therapies” (LYTIX BIOPHARMA AS, priority 2014, dated 2019).
Read-outs that look alike come from different tables or passages of the source.

What was measured:
Format in all cases: biochemical
MST3 = MST3 (Homo sapiens, UniProt Q9Y6E0); assay: Kinase profiling MST3; conditions: for remaining activity at 100 µM: read-out: residual kinase activity, MST3
Excerpt: (§1) Any value less that 25 is considered to be highly significant inhibition.

NEK2a = target: T1, NEK2a (Homo sapiens, UniProt P51955); assay: Kinase profiling NEK2a; conditions: for remaining activity at 100 µM: read-out: residual kinase activity, NEK2a
T1 sequence (P51955 1-445): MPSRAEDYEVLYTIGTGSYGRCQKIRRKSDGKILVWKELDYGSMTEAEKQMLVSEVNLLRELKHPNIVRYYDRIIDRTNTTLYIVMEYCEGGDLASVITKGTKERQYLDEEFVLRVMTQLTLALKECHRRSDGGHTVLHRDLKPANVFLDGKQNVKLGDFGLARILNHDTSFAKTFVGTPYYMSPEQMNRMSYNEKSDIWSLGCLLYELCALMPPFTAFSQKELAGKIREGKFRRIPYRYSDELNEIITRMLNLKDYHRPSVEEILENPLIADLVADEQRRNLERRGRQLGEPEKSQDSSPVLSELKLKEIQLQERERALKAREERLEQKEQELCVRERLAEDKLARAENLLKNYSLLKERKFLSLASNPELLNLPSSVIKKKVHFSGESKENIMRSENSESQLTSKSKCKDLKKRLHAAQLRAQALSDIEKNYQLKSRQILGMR
Excerpt: as §1

MARK1 = MARK1 (Homo sapiens, UniProt Q9P0L2); assay: Kinase profiling MARK1; conditions: for remaining activity at 100 µM: read-out: residual kinase activity, MARK1
Excerpt: as §1

MARK4 = target: T2, MARK4 (Homo sapiens, UniProt Q96L34); assay: Kinase profiling MARK4; conditions: for remaining activity at 100 µM: read-out: residual kinase activity, MARK4
T2 sequence (Q96L34 1-752): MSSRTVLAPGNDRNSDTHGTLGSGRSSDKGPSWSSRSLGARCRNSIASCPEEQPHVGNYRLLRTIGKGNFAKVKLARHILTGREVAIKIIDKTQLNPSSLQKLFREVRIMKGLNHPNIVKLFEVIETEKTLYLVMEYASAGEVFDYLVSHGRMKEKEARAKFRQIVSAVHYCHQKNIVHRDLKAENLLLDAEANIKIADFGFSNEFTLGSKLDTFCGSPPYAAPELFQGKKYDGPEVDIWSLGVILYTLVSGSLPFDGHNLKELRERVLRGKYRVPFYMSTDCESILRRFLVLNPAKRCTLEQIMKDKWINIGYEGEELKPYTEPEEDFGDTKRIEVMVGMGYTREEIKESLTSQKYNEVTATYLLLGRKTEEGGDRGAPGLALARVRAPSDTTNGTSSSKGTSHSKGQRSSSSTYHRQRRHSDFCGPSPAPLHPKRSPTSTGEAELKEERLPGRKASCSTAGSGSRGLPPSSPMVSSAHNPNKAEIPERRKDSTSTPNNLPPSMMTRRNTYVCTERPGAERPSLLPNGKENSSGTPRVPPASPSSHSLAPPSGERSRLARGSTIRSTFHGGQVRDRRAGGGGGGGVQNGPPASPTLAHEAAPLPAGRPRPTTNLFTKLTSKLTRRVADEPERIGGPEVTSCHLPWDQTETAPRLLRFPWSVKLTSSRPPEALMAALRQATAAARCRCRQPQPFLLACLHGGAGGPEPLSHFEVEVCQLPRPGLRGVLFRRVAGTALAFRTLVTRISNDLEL
Excerpt: as §1

PRAK = target: T3, PRAK (Homo sapiens, UniProt Q8IW41); assay: Kinase profiling PRAK; conditions: for remaining activity at 100 µM: read-out: residual kinase activity, PRAK
T3 sequence (Q8IW41 1-473): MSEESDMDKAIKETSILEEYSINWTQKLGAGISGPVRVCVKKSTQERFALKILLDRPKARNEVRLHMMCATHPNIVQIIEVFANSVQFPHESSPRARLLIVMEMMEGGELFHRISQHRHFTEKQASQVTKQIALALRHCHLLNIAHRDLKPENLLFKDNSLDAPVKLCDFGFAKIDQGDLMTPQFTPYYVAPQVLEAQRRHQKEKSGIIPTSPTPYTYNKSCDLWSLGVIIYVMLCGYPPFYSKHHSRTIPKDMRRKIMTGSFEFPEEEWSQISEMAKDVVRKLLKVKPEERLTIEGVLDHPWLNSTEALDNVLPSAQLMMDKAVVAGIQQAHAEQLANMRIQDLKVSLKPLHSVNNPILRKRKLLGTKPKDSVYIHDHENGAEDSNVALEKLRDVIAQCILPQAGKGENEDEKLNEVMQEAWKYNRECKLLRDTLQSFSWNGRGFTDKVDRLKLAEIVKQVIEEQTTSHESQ
Excerpt: as §1

SIK3 = SIK3 (Homo sapiens, UniProt Q9Y2K2); assay: Kinase profiling SIK3; conditions: for remaining activity at 100 µM: read-out: residual kinase activity, SIK3
Excerpt: as §1

TIE2 = TIE2 (Homo sapiens, UniProt Q02763); assay: Kinase profiling TIE2; conditions: for remaining activity at 100 µM: read-out: residual kinase activity, TIE2
Excerpt: as §1

ZAP70 = target: T4, ZAP70 (Homo sapiens, UniProt P43403); assay: Kinase profiling ZAP70; conditions: for remaining activity at 100 µM: read-out: residual kinase activity, ZAP70
T4 sequence (P43403 1-619): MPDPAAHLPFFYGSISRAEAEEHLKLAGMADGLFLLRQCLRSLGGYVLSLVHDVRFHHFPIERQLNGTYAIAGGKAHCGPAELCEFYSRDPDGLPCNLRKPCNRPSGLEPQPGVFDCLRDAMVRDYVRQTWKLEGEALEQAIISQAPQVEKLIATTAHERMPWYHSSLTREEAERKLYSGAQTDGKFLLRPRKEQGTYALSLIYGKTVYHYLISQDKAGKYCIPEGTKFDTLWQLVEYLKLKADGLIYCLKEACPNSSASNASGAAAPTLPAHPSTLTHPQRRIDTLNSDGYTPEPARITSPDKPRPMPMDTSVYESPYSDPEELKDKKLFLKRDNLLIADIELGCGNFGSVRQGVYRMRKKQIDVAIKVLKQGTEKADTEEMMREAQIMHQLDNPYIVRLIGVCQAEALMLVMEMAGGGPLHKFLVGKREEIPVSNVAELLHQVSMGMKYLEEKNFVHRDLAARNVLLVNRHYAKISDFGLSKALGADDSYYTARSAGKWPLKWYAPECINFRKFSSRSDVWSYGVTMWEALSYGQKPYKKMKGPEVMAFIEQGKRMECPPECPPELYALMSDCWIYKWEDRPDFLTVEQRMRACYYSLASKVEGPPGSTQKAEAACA
Excerpt: as §1

MINK1 = MINK1 (Homo sapiens, UniProt Q8N4C8); assay: Kinase profiling MINK1; conditions: for remaining activity at 100 µM: read-out: residual kinase activity, MINK1
Excerpt: as §1

FGF-R1 = FGF-R1 (Homo sapiens, UniProt P11362); assay: Kinase profiling FGF-R1; conditions: for remaining activity at 100 µM: read-out: residual kinase activity, FGF-R1
Excerpt: as §1

HIPK3 = HIPK3 (Homo sapiens, UniProt Q9H422); assay: Kinase profiling HIPK3; conditions: for remaining activity at 100 µM: read-out: residual kinase activity, HIPK3
Excerpt: as §1

WNK1 = WNK1 (Homo sapiens, UniProt Q9H4A3); assay: Kinase profiling WNK1; conditions: for remaining activity at 100 µM: read-out: residual kinase activity, WNK1
Excerpt: as §1

MAP4K5 = MAP4K5 (Homo sapiens, UniProt Q9Y4K4); assay: Kinase profiling MAP4K5; conditions: for remaining activity at 100 µM: read-out: residual kinase activity, MAP4K5
Excerpt: as §1

[1] = 100 micromolar inhibitor concentration, 100 is no change
[2] = 100 micromolar inhibitor, 100 = no change

Chain of MARK1 (Q9P0L2 whole entry, species assumed): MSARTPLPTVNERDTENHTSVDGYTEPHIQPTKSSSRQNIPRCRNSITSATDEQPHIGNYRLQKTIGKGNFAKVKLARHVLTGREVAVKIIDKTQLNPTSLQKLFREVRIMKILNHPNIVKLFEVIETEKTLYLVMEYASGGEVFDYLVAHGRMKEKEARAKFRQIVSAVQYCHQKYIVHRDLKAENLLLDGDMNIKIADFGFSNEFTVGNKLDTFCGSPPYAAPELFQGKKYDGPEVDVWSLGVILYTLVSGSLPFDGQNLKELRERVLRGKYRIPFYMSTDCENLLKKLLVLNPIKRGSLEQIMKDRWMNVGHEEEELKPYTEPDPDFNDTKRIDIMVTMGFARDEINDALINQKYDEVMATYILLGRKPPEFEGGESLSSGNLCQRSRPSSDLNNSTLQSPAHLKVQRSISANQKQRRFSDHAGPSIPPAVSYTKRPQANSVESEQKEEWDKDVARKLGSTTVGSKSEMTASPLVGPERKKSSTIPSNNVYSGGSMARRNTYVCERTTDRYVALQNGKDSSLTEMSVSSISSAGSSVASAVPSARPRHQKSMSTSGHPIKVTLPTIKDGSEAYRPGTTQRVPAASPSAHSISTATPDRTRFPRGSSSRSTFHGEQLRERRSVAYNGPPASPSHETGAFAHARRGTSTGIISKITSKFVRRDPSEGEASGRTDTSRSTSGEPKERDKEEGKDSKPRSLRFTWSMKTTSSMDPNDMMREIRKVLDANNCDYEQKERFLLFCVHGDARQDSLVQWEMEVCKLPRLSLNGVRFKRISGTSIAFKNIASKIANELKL
Chain of MST3 (Q9Y6E0 whole entry, species assumed): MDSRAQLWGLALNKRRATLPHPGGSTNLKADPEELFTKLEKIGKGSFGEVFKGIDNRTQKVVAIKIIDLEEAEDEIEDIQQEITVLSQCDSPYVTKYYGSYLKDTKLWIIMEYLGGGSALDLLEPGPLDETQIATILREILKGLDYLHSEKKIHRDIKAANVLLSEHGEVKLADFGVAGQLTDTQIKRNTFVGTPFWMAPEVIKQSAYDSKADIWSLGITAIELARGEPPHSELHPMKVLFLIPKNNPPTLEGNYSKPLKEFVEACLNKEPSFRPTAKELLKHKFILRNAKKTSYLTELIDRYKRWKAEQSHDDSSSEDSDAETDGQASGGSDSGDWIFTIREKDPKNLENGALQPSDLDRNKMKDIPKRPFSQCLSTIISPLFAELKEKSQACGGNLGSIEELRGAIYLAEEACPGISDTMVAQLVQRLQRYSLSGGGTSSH
Chain of TIE2 (Q02763 23-1124, species assumed): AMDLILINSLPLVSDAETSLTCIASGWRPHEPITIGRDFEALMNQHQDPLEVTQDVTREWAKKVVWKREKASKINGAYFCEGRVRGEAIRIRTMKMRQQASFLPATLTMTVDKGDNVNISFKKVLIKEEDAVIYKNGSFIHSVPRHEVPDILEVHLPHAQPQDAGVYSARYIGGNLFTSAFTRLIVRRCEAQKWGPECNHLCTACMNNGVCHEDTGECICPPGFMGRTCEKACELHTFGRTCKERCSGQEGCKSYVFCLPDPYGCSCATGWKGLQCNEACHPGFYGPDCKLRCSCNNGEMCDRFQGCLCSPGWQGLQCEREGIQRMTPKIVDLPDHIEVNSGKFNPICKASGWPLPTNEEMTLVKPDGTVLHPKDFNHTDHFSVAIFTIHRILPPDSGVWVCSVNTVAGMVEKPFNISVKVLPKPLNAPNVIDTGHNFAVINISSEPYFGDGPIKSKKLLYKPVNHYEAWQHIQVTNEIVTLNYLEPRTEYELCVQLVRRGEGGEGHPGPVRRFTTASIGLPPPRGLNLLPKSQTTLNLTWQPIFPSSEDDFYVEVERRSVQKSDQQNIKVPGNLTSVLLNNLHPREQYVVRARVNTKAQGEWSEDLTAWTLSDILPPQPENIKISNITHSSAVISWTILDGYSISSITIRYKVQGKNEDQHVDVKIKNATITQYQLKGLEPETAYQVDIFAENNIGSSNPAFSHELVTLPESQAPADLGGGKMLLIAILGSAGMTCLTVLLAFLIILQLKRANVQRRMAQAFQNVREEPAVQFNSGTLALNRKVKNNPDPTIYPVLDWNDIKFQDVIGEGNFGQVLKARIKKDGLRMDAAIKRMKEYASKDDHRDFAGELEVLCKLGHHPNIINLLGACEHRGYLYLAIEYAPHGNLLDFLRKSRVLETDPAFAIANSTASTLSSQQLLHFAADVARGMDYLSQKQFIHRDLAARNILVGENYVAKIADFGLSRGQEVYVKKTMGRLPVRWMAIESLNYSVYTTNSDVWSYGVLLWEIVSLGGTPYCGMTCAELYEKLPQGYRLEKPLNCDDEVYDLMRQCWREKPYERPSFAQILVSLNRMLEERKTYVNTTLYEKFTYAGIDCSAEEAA
Chain of FGF-R1 (P11362 22-822, species assumed): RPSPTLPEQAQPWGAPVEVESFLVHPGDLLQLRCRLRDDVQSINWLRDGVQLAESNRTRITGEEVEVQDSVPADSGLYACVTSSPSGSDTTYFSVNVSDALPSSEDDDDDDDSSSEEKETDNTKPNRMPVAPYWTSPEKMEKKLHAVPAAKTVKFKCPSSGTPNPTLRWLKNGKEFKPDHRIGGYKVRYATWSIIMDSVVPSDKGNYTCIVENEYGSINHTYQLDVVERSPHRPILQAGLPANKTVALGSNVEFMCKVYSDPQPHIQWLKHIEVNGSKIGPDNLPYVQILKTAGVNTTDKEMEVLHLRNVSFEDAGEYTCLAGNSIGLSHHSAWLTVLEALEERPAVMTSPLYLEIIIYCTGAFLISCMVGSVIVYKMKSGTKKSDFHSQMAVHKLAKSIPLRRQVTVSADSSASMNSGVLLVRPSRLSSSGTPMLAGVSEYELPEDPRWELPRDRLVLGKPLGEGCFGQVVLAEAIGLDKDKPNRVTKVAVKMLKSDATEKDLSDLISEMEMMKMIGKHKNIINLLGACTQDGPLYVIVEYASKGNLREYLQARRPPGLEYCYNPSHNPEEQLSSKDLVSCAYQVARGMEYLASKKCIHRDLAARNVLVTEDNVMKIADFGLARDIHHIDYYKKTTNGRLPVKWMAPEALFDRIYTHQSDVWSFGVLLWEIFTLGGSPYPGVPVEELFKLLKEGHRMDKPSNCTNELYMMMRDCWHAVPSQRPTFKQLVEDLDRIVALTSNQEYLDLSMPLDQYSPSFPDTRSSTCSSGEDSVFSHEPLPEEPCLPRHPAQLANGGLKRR
Chain of MINK1 (Q8N4C8 whole entry, species assumed): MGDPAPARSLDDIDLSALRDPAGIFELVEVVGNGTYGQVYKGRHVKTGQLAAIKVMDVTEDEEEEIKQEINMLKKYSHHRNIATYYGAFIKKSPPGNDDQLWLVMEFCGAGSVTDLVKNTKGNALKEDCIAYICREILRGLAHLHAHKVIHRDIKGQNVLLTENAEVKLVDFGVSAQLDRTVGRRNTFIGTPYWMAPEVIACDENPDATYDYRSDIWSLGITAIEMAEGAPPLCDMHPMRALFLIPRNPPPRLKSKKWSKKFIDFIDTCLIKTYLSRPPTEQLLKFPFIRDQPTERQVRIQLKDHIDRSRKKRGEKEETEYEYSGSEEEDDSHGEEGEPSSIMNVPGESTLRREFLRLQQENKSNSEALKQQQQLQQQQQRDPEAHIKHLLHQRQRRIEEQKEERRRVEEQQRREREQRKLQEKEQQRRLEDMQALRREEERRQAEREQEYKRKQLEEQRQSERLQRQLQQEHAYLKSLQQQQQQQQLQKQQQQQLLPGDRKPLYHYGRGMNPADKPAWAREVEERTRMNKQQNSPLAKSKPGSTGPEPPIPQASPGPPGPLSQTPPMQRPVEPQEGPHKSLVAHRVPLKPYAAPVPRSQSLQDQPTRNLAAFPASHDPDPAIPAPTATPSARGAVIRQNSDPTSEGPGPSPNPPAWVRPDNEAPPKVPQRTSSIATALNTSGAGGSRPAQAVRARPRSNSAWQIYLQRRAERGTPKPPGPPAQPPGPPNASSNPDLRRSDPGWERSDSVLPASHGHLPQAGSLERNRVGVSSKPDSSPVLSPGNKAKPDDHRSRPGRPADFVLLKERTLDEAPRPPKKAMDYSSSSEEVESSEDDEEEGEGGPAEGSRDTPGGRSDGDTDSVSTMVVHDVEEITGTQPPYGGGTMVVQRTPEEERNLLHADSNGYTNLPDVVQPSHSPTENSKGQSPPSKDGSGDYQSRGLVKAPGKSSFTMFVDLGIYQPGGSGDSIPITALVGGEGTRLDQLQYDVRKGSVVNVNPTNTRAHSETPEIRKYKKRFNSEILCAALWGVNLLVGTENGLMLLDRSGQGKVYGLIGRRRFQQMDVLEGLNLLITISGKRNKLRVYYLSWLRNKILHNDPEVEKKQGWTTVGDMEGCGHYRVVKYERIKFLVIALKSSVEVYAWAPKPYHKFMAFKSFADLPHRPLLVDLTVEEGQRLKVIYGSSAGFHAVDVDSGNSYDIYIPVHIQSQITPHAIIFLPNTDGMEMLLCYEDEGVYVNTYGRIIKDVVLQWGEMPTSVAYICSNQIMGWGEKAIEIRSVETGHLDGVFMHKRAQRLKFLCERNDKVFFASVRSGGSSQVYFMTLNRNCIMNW

SMILES: CC(=O)Nc1nc2cc(O)ccc2s1 [Compound 01-66, N-(5-hydroxybenzo[d]thiazol-2-yl)acetamide]
- remaining activity at 100 µM (MST3): 79%
- remaining activity at 100 µM (NEK2a): 85%
- remaining activity at 100 µM (MARK1): 56%
- remaining activity at 100 µM (MARK4): 80%
- remaining activity at 100 µM (PRAK): 58%
- remaining activity at 100 µM (SIK3): 57%
- remaining activity at 100 µM (TIE2): 75%
- remaining activity at 100 µM (ZAP70): 113%
- remaining activity at 100 µM (MINK1): 48%
- remaining activity at 100 µM (FGF-R1): 67%
- remaining activity at 100 µM (HIPK3): 37%
- remaining activity at 100 µM (WNK1): 101%

SMILES: CC(=O)Nc1nc2ccc(O)cc2s1 [Compound 01-71]
- remaining activity at 100 µM (MST3; [1]): 66%
- remaining activity at 100 µM (NEK2a; [1]): 75%
- remaining activity at 100 µM (MARK1; [1]): 33%
- remaining activity at 100 µM (MARK4; [1]): 66%
- remaining activity at 100 µM (PRAK; [1]): 47%
- remaining activity at 100 µM (SIK3; [1]): 46%
- remaining activity at 100 µM (TIE2; [1]): 65%
- remaining activity at 100 µM (ZAP70; [1]): 126%
- remaining activity at 100 µM (MINK1; [1]): 28%
- remaining activity at 100 µM (FGF-R1; [1]): 42%
- remaining activity at 100 µM (HIPK3; [1]): 27%
- remaining activity at 100 µM (WNK1; [1]): 96%

SMILES: CC(=O)Nc1nc2ccc(C(F)(F)F)cc2s1 [Compound 01-90]
- remaining activity at 100 µM (MST3; [1]): 85%
- remaining activity at 100 µM (NEK2a; [1]): 78%
- remaining activity at 100 µM (MARK1; [1]): 90%
- remaining activity at 100 µM (MARK4; [1]): 66%
- remaining activity at 100 µM (PRAK; [1]): 111%
- remaining activity at 100 µM (SIK3; [1]): 82%
- remaining activity at 100 µM (TIE2; [1]): 60%
- remaining activity at 100 µM (MAP4K5; [1]): 40%
- remaining activity at 100 µM (ZAP70; [1]): 122%
- remaining activity at 100 µM (MINK1; [1]): 35%
- remaining activity at 100 µM (FGF-R1; [1]): 40%
- remaining activity at 100 µM (HIPK3; [1]): 69%
- remaining activity at 100 µM (WNK1; [1]): 100%

SMILES: CC(=O)Nc1nc2ccc(C#N)cc2s1 [Compound 01-94]
- remaining activity at 100 µM (MST3; [1]): 71%
- remaining activity at 100 µM (NEK2a; [1]): 60%
- remaining activity at 100 µM (MARK1; [1]): 60%
- remaining activity at 100 µM (MARK4; [1]): 51%
- remaining activity at 100 µM (PRAK; [1]): 69%
- remaining activity at 100 µM (SIK3; [1]): 73%
- remaining activity at 100 µM (TIE2; [1]): 85%
- remaining activity at 100 µM (MAP4K5; [1]): 38%
- remaining activity at 100 µM (ZAP70; [1]): 118%
- remaining activity at 100 µM (MINK1; [1]): 40%
- remaining activity at 100 µM (FGF-R1; [1]): 51%
- remaining activity at 100 µM (HIPK3; [1]): 38%
- remaining activity at 100 µM (WNK1; [1]): 101%

SMILES: CC(=O)Nc1cccc(NC(=O)c2nc3ccc(O)cc3s2)c1 [Compound 03-07, N-(3-acetamidophenyl)-6-hydroxybenzo[d]thiazole-2-carboxamide]
- remaining activity at 100 µM (MST3; [2]): 85%
- remaining activity at 100 µM (NEK2a; [2]): 38%
- remaining activity at 100 µM (MARK1; [2]): 106%
- remaining activity at 100 µM (MARK4; [2]): 71%
- remaining activity at 100 µM (PRAK; [2]): 59%
- remaining activity at 100 µM (SIK3; [2]): 56%
- remaining activity at 100 µM (TIE2; [2]): 78%
- remaining activity at 100 µM (MAP4K5; [2]): 56%
- remaining activity at 100 µM (ZAP70; [2]): 94%
- remaining activity at 100 µM (MINK1; [2]): 18%
- remaining activity at 100 µM (FGF-R1; [2]): 66%
- remaining activity at 100 µM (HIPK3; [2]): 81%
- remaining activity at 100 µM (WNK1; [2]): 115%

SMILES: O=C(Nc1nc2cc(O)ccc2s1)c1ccncc1 [Compound 03-11]
- residual kinase activity, MST3 (MST3; [1]): 92
- residual kinase activity, NEK2a (NEK2a; [1]): 93
- residual kinase activity, MARK1 (MARK1; [1]): 90
- residual kinase activity, MARK4 (MARK4; [1]): 102
- residual kinase activity, PRAK (PRAK; [1]): 86
- residual kinase activity, SIK3 (SIK3; [1]): 99
- residual kinase activity, TIE2 (TIE2; [1]): 84
- residual kinase activity, MAP4K5 (MAP4K5; [1]): 92
- residual kinase activity, ZAP70 (ZAP70; [1]): 89
- residual kinase activity, MINK1 (MINK1; [1]): 63
- residual kinase activity, FGF-R1 (FGF-R1; [1]): 74
- residual kinase activity, HIPK3 (HIPK3; [1]): 106
- residual kinase activity, WNK1 (WNK1; [1]): 88
